Measured values published in US20240174673A1, “Spirocycle Containing Pyridine Compounds” (Protego Biopharma, Inc., priority 2022, published 2024).

Each compound was assayed on Recombinant amyloidogenic full length light chain protein WIL-FL T46L (assay: Differential Scanning Fluorimetry (thermal shift) assay). Conditions: WIL-FL T46L protein and compound incubated at RT for 30 min before dye; compared to vehicle.
Format: binding
Protocol: Differential Scanning Fluorimetry Assay
The stabilization effects the compounds have on the immunoglobulin light chain protein was quantitively measured using a thermal shift assay. Recombinant amyloidogenic full length light chain protein WIL-FL T46L was produced in E. coli, purified, and used in the assay. The Thermal Shift Protein Stability Kit from Biotium was used and the assay was done in 96-well Plates following the manufacturer's instructions. The protein and compounds were incubated at RT for 30 min before adding the dye and subjected to the thermal shift assay. The thermal stability (Tm) of each sample was then determined using standard curve fitting methods and compared to vehicle. Data are expressed as temperature shift: [Tm]compound−[Tm]vehicle.
The compounds provided herein induce shifts in the ranges below: • 0-0.5° C.=* • >0.5-1° C.=** • >1-1.5° C.=*** • >1.5-2.5° C.=**** • >2.5° C.=*****

Row | Compound | DSF temperature shift: [Tm]compound−[Tm]vehicle
1 | C[C@]1(c2ccccc2)CCN(c2cnc(C(=O)NCCN3CC4(CCN(c5nccn6ccnc56)CC4)NC3=O)c(Cl)c2)C1 [Compound 7, 3-chloro-N-(2-(8-(imidazo[1,2-a]pyrazin-8-yl)-2-oxo-1,3,8-triazaspiro[4.5]decan-3-yl)ethyl)-5-(3-methyl-3-phenylpyrrolidin-1-yl)picolinamide] | ***** (>2.5° C.=*****)
2 | Cc1cc(N2CCC(C)(c3ccccc3)C2)cnc1C(=O)NCCN1CC2(CCNCC2)NC1=O (stereo not shown) [Compound 2, 3-methyl-5-(3-methyl-3-phenylpyrrolidin-1-yl)-N-(2-(2-oxo-1,3,8-triazaspiro[4.5]decan-3-yl)ethyl)picolinamide] | **** (>1.5-2.5° C.=****)
3 | CC[C@]1(c2ccccc2)CCN(c2cnc(C(=O)NCCN3CC4(CCN(c5nccn6ccnc56)CC4)NC3=O)c(Cl)c2)C1 [Compound 10] | ***** (>2.5° C.=*****)
4 | Cc1cc(N2CCC(C)(c3ccccc3)C2)cnc1CCN1C(=O)NC2(CCN(c3ncccn3)CC2)C1=O (stereo not shown) [Compound 26] | * (0-0.5° C.=*)
5 | C[C@H](COc1cnc(C(=O)NCCN2CC3(CCN(c4ccc(C(=O)O)nc4)CC3)NC2=O)c(Cl)c1)c1ccccc1 [Compound 22] | *** (>1-1.5° C.=***)
6 | C[C@H](COc1cnc(C(=O)NCCN2CC3(CCN(c4ccc(C(=O)O)nn4)CC3)NC2=O)c(Cl)c1)c1ccccc1 [Compound 21] | ** (>0.5-1° C.=**)
7 | CC[C@]1(c2ccccc2)CCN(c2cnc(C(=O)NCCN3CC4(CCN(c5nccn6cnnc56)CC4)NC3=O)c(Cl)c2)C1 [Compound 11] | ***** (>2.5° C.=*****)
8 | C[C@]1(c2ccccc2)CCN(c2cnc(C(=O)NCCN3CC4(CCN(c5nccn6ccnc56)CC4)NC3=O)c(C(F)(F)F)c2)C1 [Compound 8] | **** (>1.5-2.5° C.=****)
9 | C[C@H](COc1cnc(C(=O)NCCN2CC3(CCN(c4cnccn4)CC3)NC2=O)c(Cl)c1)c1ccccc1 [Compound 24] | **** (>1.5-2.5° C.=****)
10 | Cc1cc(N2CC[C@](C)(c3ccccc3)C2)cnc1C(=O)NCCN1CC2(CCN(c3nccn4cncc34)CC2)NC1=O [Compound 3] | ***** (>2.5° C.=*****)
11 | CC(=O)N1CCC2(CC1)CN(CCNC(=O)c1ncc(N3CC[C@](C)(c4ccccc4)C3)cc1C)C(=O)N2 [Compound 25] | **** (>1.5-2.5° C.=****)
12 | Cc1cc(N2CC[C@](C)(c3ccccc3)C2)cnc1C(=O)NCCN1CC2(CCN(c3nccn4cnnc34)CC2)NC1=O [Compound 4] | ***** (>2.5° C.=*****)
13 | COC(=O)c1ncc(N2CCC3(CC2)CN(CCNC(=O)c2ncc(OC[C@@H](C)c4ccccc4)cc2Cl)C(=O)N3)cc1F [Compound 18] | ** (>0.5-1° C.=**)
14 | CC[C@]1(c2ccccc2)CCN(c2cnc(C(=O)NCCN3CC4(CCN(c5cncnc5)CC4)NC3=O)c(Cl)c2)C1 [Compound 17] | ** (>0.5-1° C.=**)
15 | CCOC(=O)c1ccc(N2CCC3(CC2)CN(CCNC(=O)c2ncc(OC[C@@H](C)c4ccccc4)cc2Cl)C(=O)N3)cn1 [Compound 15] | *** (>1-1.5° C.=***)
16 | C[C@H](COc1cnc(C(=O)NCCN2CC3(CCN(c4nccn5cncc45)CC3)NC2=O)c(Cl)c1)c1ccccc1 [Compound 23] | ***** (>2.5° C.=*****)
17 | C[C@H](COc1cnc(C(=O)NCCN2CC3(CCN(c4nccn5ccnc45)CC3)NC2=O)c(Cl)c1)c1ccccc1 (stereo in doubt) [Compound 13, 3-chloro-N-(2-(8-(imidazo[1,2-a]pyrazin-8-yl)-2-oxo-1,3,8-triazaspiro[4.5]decan-3-yl)ethyl)-5-(2-phenylpropoxy)picolinamide] | ***** (>2.5° C.=*****)
18 | C[C@]1(c2ccccc2)CCN(c2cnc(C(=O)NCCN3CC4(CCN(c5nccn6cnnc56)CC4)NC3=O)c(Cl)c2)C1 [Compound 9] | ***** (>2.5° C.=*****)
19 | Cc1cc(N2CCC(C)(c3ccccc3)C2)cnc1C(=O)NCCN1CC2(CCN(c3nccn4ccnc34)CC2)NC1=O (stereo not shown) [Compound 14] | ***** (>2.5° C.=*****)
20 | COC(=O)c1ccc(N2CCC3(CC2)CN(CCNC(=O)c2ncc(OC[C@@H](C)c4ccccc4)cc2Cl)C(=O)N3)nn1 [Compound 19] | **** (>1.5-2.5° C.=****)
21 | C[C@H](COc1cnc(C(=O)NCCN2CC3(CCN(c4cnc(C(=O)O)c(F)c4)CC3)NC2=O)c(Cl)c1)c1ccccc1 [Compound 20] | ** (>0.5-1° C.=**)
22 | Cc1cc(N2CC[C@@](C)(c3ccccc3)C2)cnc1C(=O)NCCN1CC2(CCN(c3nccn4ccnc34)CC2)NC1=O [Compound 6] | **** (>1.5-2.5° C.=****)
23 | C[C@H](COc1cnc(C(=O)NCCN2CC3(CCNCC3)NC2=O)c(Cl)c1)c1ccccc1 [Compound 12] | *** (>1-1.5° C.=***)
24 | CC[C@]1(c2ccccc2)CCN(c2cnc(C(=O)NCCN3CC4(CCN(c5ccnc(C(=O)NC)c5)CC4)NC3=O)c(Cl)c2)C1 [Compound 16] | * (0-0.5° C.=*)
25 | Cc1cc(N2CC[C@](C)(c3ccccc3)C2)cnc1C(=O)NCCN1CC2(CCN(c3nccn4ccnc34)CC2)NC1=O (stereo in doubt) [Compound 5, N-(2-(8-(imidazo[1,2-a]pyrazin-8-yl)-2-oxo-1,3,8-triazaspiro[4.5]decan-3-yl)ethyl)-3-methyl-5-(3-methyl-3-phenylpyrrolidin-1-yl)picolinamide] | ***** (>2.5° C.=*****)
